Experimental data from patent US20250313535A1, “ALPHA 4 BETA 7 INTEGRIN MODULATORS AND USES THEREOF” (DICE MOLECULES SV, INC., priority 2022, published 2025).

Key:
α4β1 integrin = α4β1 integrin (Homo sapiens (Human), UniProt P05556+P13612); test: Integrin Adhesion Assay: Protocol 2 (VCAM-coated plate, Jurkat cells, CellTiter GLO readout); format: cell-based; conditions: determined by at least one of the assays described (protocol not specified)
Experimental: α4β7 and α4β1 inhibition was evaluated in vitro using at least one of the following procedures:
Integrin Adhesion Assay: Protocol 2
VCAM (R&D Systems, 0.1 ug) was diluted in 50 μL PBS, added to each well of an opaque ELISA plate (Thermo), and incubated overnight at 4° C. Coated plates were washed once with PBS and then blocked with 200 μL of assay buffer (10 mM HEPES, 150 mM NaCl, 1 mM MnCl2, 0.1 mM CaCl2), 1% BSA) for 1 hour at 37° C. and 5% CO2. After incubation, buffer was aspirated from the plates and 50 μL of fresh assay buffer was added. Compounds were added by compounds dispenser (Tecan) and DMSO concentration was normalized to 1% across each plate. 50 μL of Jurkat cells (2×10^6 per mL) were added to each well and the plates were incubated for 1 hour at 37° C. and 5% CO2. After incubation, plates were allowed to cool to RT for 10 minutes before being washed four times in assay buffer by an automated plate washer (BioTek). After washing, 100 μL of a 1:1 mixture of assay buffer and CellTiter GLO 2.0 reagent (Promega) were added to each well. Plates were mixed for 2 minutes at 1000 rpm and then allowed to incubate an additional 10 minutes before reading out luminescence on a Tecan Spark plate reader. Raw data was converted to percent inhibition based on DMSO only and control compound wells, and curves were analyzed by 4-parameter fit within Dotmatics software.

α4β7 integrin = α4β7 integrin (Homo sapiens (Human), UniProt P13612+P26010); test: Integrin Adhesion Assay: Protocol 1 (MAdCAM-coated plate, RPMI-8866 cells, CellTiter GLO readout); format: cell-based; conditions: integrin adhesion assay; determined by at least one of the assays described (protocol not specified)
α4β7 integrin, sequence (P13612 34-1032): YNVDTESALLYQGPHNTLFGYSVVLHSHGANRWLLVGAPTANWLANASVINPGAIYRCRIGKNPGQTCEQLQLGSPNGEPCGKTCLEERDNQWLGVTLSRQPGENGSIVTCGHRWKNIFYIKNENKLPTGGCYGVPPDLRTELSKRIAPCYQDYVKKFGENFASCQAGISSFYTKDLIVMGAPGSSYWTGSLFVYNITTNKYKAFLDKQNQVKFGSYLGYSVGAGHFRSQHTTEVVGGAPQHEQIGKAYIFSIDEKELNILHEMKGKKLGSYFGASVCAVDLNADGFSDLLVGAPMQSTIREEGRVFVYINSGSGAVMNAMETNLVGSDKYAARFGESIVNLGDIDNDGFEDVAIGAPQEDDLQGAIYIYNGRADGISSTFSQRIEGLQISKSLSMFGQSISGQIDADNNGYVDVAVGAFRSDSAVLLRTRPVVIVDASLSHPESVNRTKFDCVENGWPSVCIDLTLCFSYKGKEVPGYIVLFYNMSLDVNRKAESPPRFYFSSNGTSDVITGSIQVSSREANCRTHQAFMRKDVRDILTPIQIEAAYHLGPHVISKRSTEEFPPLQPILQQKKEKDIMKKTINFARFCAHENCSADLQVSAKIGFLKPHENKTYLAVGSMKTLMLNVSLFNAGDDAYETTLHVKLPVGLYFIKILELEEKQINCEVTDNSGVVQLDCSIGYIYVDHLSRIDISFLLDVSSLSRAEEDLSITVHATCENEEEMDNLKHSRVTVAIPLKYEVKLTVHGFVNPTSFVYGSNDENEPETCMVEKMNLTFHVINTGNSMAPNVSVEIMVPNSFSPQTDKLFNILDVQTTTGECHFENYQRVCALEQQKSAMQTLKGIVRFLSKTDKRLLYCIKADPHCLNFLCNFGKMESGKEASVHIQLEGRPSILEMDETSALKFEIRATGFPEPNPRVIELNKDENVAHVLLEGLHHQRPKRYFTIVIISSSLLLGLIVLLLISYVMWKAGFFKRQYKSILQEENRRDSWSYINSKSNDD
α4β7 integrin, sequence (P26010 20-798): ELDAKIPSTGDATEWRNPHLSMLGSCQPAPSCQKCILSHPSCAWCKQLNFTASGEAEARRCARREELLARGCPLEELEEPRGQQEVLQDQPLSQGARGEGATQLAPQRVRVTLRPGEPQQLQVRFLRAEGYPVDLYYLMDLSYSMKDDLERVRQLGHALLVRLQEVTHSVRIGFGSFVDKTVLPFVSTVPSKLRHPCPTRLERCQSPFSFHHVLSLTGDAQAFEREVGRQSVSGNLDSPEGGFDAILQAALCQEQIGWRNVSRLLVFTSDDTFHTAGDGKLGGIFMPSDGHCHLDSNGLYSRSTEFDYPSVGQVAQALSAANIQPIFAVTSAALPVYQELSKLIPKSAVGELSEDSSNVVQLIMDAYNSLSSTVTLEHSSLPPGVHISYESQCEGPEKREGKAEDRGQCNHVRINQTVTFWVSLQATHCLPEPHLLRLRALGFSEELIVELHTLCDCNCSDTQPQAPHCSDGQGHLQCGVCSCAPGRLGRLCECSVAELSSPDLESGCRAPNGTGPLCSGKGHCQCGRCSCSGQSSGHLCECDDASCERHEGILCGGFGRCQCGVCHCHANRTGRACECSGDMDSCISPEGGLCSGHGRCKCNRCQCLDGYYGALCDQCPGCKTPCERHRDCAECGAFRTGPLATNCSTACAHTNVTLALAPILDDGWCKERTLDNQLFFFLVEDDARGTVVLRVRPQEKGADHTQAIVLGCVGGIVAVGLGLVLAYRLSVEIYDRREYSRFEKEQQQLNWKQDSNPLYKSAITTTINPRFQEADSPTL
Summary of the method: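 RPMI-8866 cells (2×10^6 per mL) added with compounds (1% DMSO) to MAdCAM-coated wells blocked in HEPES/NaCl buffer with 1 mM MnCl2, 0.1 mM CaCl2, 1% BSA; 1 h at 37° C, 5% CO2. After four washes, bound cells read by CellTiter GLO luminescence; % inhibition vs DMSO and control wells, 4-parameter fit.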

α4β1 integrin, sequence (P13612 34-1032): as the sequence (P13612 34-1032) above
α4β1 integrin, sequence (P05556 21-798): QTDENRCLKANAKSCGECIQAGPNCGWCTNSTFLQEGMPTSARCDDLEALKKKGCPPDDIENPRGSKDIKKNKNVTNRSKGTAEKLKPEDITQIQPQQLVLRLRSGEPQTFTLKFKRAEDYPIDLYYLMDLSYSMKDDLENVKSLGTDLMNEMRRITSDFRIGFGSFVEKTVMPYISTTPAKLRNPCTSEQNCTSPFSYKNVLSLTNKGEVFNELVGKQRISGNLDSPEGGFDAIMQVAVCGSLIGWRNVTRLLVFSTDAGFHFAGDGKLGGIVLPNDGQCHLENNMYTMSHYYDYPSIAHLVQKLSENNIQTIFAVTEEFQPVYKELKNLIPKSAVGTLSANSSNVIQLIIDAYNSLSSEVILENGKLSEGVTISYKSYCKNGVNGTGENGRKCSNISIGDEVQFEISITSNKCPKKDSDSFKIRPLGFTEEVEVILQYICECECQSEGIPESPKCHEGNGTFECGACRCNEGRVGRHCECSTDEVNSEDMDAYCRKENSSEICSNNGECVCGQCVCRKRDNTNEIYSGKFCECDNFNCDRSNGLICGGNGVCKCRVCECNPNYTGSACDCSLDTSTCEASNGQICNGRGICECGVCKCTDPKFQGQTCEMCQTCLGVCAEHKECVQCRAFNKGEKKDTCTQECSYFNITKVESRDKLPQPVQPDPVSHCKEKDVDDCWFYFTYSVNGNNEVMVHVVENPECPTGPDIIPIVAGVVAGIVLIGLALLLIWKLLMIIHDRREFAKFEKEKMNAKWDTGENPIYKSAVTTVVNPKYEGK

Row | Compound | IC50 (α4β1 integrin) [µM] | IC50 (α4β7 integrin) [µM]
1 | CN([C@H](CCC(=O)O)C(=O)N[C@@H](Cc1cccc2c(-n3c(=O)ccn(C)c3=O)cccc12)C(=O)O)S(=O)(=O)c1ccccc1 [Compound 72] | > 1 | 0.1 to 1
2 | Cn1ccc(=O)n(-c2cccc3c(C[C@H](NC(=O)C(F)(F)Sc4ccc(Cl)cc4Cl)C(=O)O)cccc23)c1=O [Compound 76] | > 1 | > 1
3 | Cn1ccc(=O)n(-c2cccc3c(C[C@H](NC(=O)[C@@H]4CCCN4c4ccccc4C#N)C(=O)O)cccc23)c1=O [Compound 79] | > 1 | 0.01 to 0.1
4 | Cn1ccc(C(F)(F)F)c(-c2cccc3c(C[C@H](OCc4c(F)cccc4F)C(=O)O)cccc23)c1=O [Compound 80] | > 1 | > 1
5 | Cn1ccc(=O)n(-c2cccc3c(C[C@H](NC(=O)c4c(F)cc(N5CCOC[C@@H]5C(F)(F)F)cc4F)C(=O)O)cccc23)c1=O [Compound 108] | 0.1 to 1 | < 0.01
6 | Cn1ccc(=O)n(-c2cccc3c(C[C@H](NC(=O)c4c(F)cncc4Cl)C(=O)O)cccc23)c1=O [Compound 110] | 0.1 to 1 | 0.01 to 0.1
7 | Cn1ccc(=O)n(-c2cccc3c(C[C@H](NC(=O)c4c(F)cc(NS(C)(=O)=O)cc4F)C(=O)O)cccc23)c1=O [Compound 111] | 0.1 to 1 | < 0.01
8 | CC[C@@H](Nc1cc(F)c(C(=O)N[C@@H](Cc2cccc3c(-n4c(=O)ccn(C)c4=O)cccc23)C(=O)O)c(F)c1)C(F)(F)F [Compound 112] | > 1 | < 0.01
9 | Cc1cc(C(F)(F)F)c(-c2cccc3c(C[C@H](NC(=O)c4c(F)cc(N5CCOC[C@@H]5C(F)(F)F)cc4F)C(=O)O)cccc23)c(=O)n1C [Compound 113] | 0.1 to 1 | < 0.01
10 | Cn1ccc(=O)n(-c2cccc3c(C[C@H](NC(=O)c4c(F)cc(NCC(F)(F)F)cc4F)C(=O)O)cccc23)c1=O [Compound 114] | > 1 | < 0.01
11 | Cn1ccc(C(F)(F)F)c(-c2cccc3c(C[C@H](NC(=O)c4c(F)cccc4F)C(=O)O)cccc23)c1=O [Compound 115] | 0.1 to 1 | 0.01 to 0.1
12 | CN(C)CCc1cc(=O)n(-c2cccc3c(C[C@H](NC(=O)c4c(F)cccc4F)C(=O)O)cccc23)c(=O)n1C [Compound 116] | > 1 | 0.01 to 0.1
13 | CN(C)CCc1cn(C)c(=O)n(-c2cccc3c(C[C@H](NC(=O)c4c(F)cccc4F)C(=O)O)cccc23)c1=O [Compound 117] | > 1 | 0.01 to 0.1
14 | Cn1cc(CCN2CC(F)C2)c(=O)n(-c2cccc3c(C[C@H](NC(=O)c4c(F)cccc4F)C(=O)O)cccc23)c1=O [Compound 118] | > 1 | 0.01 to 0.1
15 | CN(C)CCn1ccc(=O)n(-c2cccc3c(C[C@H](NC(=O)c4c(F)cccc4F)C(=O)O)cccc23)c1=O [Compound 119] | > 1 | 0.01 to 0.1
16 | Cn1ccc(=O)n(-c2cccc3c(C[C@H](NC(=O)c4c(F)ccc(NCC(F)(F)F)c4F)C(=O)O)cccc23)c1=O [Compound 120] | > 1 | 0.01 to 0.1
17 | Cn1ccc(=O)n(-c2cccc3c(C[C@H](NC(=O)c4cc5ncn(CC(F)(F)F)c5cc4F)C(=O)O)cccc23)c1=O [Compound 124] | > 1 | 0.01 to 0.1
18 | Cn1ccc(=O)n(-c2cccc3c(C[C@H](NC(=O)c4c(F)cc5c(cnn5CC(F)(F)F)c4F)C(=O)O)cccc23)c1=O [Compound 126] | 0.1 to 1 | < 0.01
19 | CNC(=O)[C@@H]1CCN1C(=O)c1ccc2cc(C(=O)N[C@@H](Cc3cccc4c(-n5c(=O)ccn(C)c5=O)cccc34)C(=O)O)ccc2c1 [Compound 127] | > 1 | > 1
20 | CNC(=O)[C@@H]1CC[C@H](c2ccccc2)N1C(=O)c1ccc2cc(C(=O)N[C@@H](Cc3cccc4c(-n5c(=O)ccn(C)c5=O)cccc34)C(=O)O)ccc2c1 [Compound 128] | > 1 | 0.1 to 1
21 | O=C(N[C@@H](Cc1cccc2c(-c3nccc4ccncc34)cccc12)C(=O)O)c1c(F)cc(N2CCOC[C@@H]2C(F)(F)F)cc1CN1CCOCC1 [Compound 129] | 0.1 to 1 | < 0.01
22 | Cn1ccc(=O)n(-c2cccc3c(C[C@H](NC(=O)c4c(F)cc(N(CC(F)(F)F)CC(F)(F)F)cc4F)C(=O)O)cccc23)c1=O [Compound 130] | > 1 | < 0.01
23 | Cn1ccc(=O)n(-c2cccc3c(C[C@H](NC(=O)c4c(F)cc(C#N)cc4F)C(=O)O)cccc23)c1=O [Compound 131] | 0.1 to 1 | 0.01 to 0.1

Row | Compound | IC50 (α4β1 integrin) [µM] | IC50 (α4β7 integrin) [µM]
24 | CCCS(=O)(=O)Nc1ccc(F)c(C(=O)N[C@@H](Cc2cccc3c(-n4c(=O)ccn(C)c4=O)cccc23)C(=O)O)c1F [Compound 132] | 0.1 to 1 | < 0.01
25 | Cn1ccc(=O)n(-c2cccc3c(C[C@H](NC(=O)c4c(F)cc5ncccc5c4F)C(=O)O)cccc23)c1=O [Compound 133] | > 1 | < 0.01
26 | Cn1cc(CCO)c(=O)n(-c2cccc3c(C[C@H](NC(=O)c4c(F)cccc4F)C(=O)O)cccc23)c1=O [Compound 137] | > 1 | 0.01 to 0.1
27 | COc1ccc(F)c(C(=O)N[C@@H](Cc2cccc3c(-n4c(=O)ccn(C)c4=O)cccc23)C(=O)O)c1F [Compound 138] | > 1 | 0.01 to 0.1
28 | CCc1ccc(F)c(C(=O)N[C@@H](Cc2cccc3c(-n4c(=O)ccn(C)c4=O)cccc23)C(=O)O)c1F [Compound 139] | 0.1 to 1 | 0.01 to 0.1
29 | O=C(N[C@@H](Cc1cccc2c(-c3nccc4ccncc34)cccc12)C(=O)O)c1c(F)cc(N2CCOC[C@H]2CC(F)F)cc1F [Compound 140] | > 1 | 0.1 to 1
30 | C/C=C/c1cn(C)c(=O)n(-c2cccc3c(C[C@H](NC(=O)c4c(F)cccc4F)C(=O)O)cccc23)c1=O [Compound 141] | > 1 | 0.01 to 0.1
31 | Cn1ccc(C(F)(F)F)c(-c2cccc3c(C[C@H](NC(=O)c4c(F)cc(N5CCOC[C@@H]5C(F)(F)F)cc4F)C(=O)O)cccc23)c1=O [Compound 142] | > 1 | 0.01 to 0.1
32 | Cn1ccc(C(F)(F)F)c(-c2cccc3c(C[C@H](NC(=O)c4c(F)cc(N5CCOC[C@@H]5C(F)(F)F)cc4CN4CCOCC4)C(=O)O)cccc23)c1=O [Compound 143] | 0.1 to 1 | < 0.01
33 | Cn1ccc(=O)n(-c2cccc3c(C[C@H](NC(=O)c4c(F)cc5cn(CC(F)(F)F)nc5c4F)C(=O)O)cccc23)c1=O [Compound 144] | 0.1 to 1 | 0.01 to 0.1
34 | O=C(N[C@@H](Cc1cccc2c(-c3nccc4ccncc34)cccc12)C(=O)O)c1c(F)cc(N2CCOC[C@H]2CC(F)F)cc1CN1CCOCC1 [Compound 146] | > 1 | < 0.01
35 | O=C(N[C@@H](Cc1cccc2c(-c3cccc4ccncc34)cccc12)C(=O)O)c1c(F)cc(N2CCOC[C@@H]2C(F)(F)F)cc1CN1CCCC1 [Compound 148] | > 1 | < 0.01
36 | O=C(N[C@@H](Cc1cccc2c(-c3cccc4ccncc34)cccc12)C(=O)O)c1c(F)cc(N2CCOC[C@@H]2C(F)(F)F)cc1CN1CCOCC1 [Compound 149] | > 1 | 0.01 to 0.1
37 | O=C(N[C@@H](Cc1cccc2c(-c3cccc4ccncc34)cccc12)C(=O)O)c1c(F)cc(NCC(F)(F)F)cc1CN1CCCC1 [Compound 150] | > 1 | < 0.01
38 | O=C(N[C@@H](Cc1cccc2c(-c3cccc4ccncc34)cccc12)C(=O)O)c1c(F)cc(N(CC(F)(F)F)CC(F)(F)F)cc1CN1CCCC1 [Compound 151] | > 1 | < 0.01
39 | CCC1(C(=O)N[C@@H](Cc2cccc3c(-n4c(=O)ccn(C)c4=O)cccc23)C(=O)O)CCN(CC(F)(F)F)CC1 [Compound 152] | 0.1 to 1 | 0.01 to 0.1
40 | CC(C)C1(C(=O)N[C@@H](Cc2cccc3c(-n4c(=O)ccn(C)c4=O)cccc23)C(=O)O)CCN(CC(F)(F)F)CC1 [Compound 153] | 0.1 to 1 | 0.01 to 0.1
41 | Cn1ccc(=O)n(-c2cccc3c(C[C@H](NC(=O)[C@H]4C[C@H]5CC[C@@H](C4)N5CC(F)(F)F)C(=O)O)cccc23)c1=O [Compound 154] | > 1 | > 1
42 | Cn1ccc(=O)n(-c2cccc3c(C[C@H](NC(=O)[C@@H]4[C@@H]5CC[C@H]4CN(CC(F)(F)F)C5)C(=O)O)cccc23)c1=O [Compound 155] | > 1 | > 1
43 | Cn1ccc(=O)n(-c2cccc3c(C[C@H](NC(=O)C4C(C)(C)CN(CC(F)(F)F)CC4(C)C)C(=O)O)cccc23)c1=O [Compound 156] | > 1 | 0.1 to 1
44 | Cn1ccc(=O)n(-c2cccc3c(C[C@H](NC(=O)[C@@]4(C)CCCN(CC(F)(F)F)CC4)C(=O)O)cccc23)c1=O [Compound 157] | > 1 | 0.01 to 0.1
45 | Cn1ccc(=O)n(-c2cccc3c(C[C@H](NC(=O)[C@@]4(C)CCCN(CC(F)(F)F)CC4)C(=O)O)cccc23)c1=O [Compound 158] | > 1 | 0.1 to 1
